Measured values reported in patent publication US4073910A, “Method for treatment of diabetes” (Eisai Co., Ltd., priority 1975, dated 1978).
“And” between values parts separate entries of the source, which are not always exact repeats. Identical values can stand only once.

Experiments:
[1] = Test of acute toxicity in rats; assay type: in vivo; settings: rat, in vivo
Experimental: (§1) Acute toxicity of Compound TN for males and females of mice rats were tested.

[2] = tested on: rats; assay: Test of acute toxicity in rats; assay type: in vivo; settings: rats, administerable maximum quantity
Experimental: as §1

[3] = Test of acute toxicity in mice; assay type: in vivo; settings: mouse, in vivo
Experimental: as §1

[4] = tested on: mice; assay: Test of acute toxicity in mice; assay type: in vivo; settings: mice, administerable maximum quantity
Experimental: as §1

[5] = tested on: rats; assay: Test of subacute and chronic toxicity in rats; assay type: in vivo; settings: 100 to 1000 mg/Kg, three or six months
[6] = tested on: beagles; assay: Test of subacute and chronic toxicity in beagles; assay type: in vivo; settings: 100 mg/Kg, three or six months
[7] = tested on: pregnant mice; assay: Test for malformation in pregnant mice; assay type: in vivo; settings: oral, 100 to 1200 mg/Kg
[8] = tested on: pregnant rats; assay: Test for malformation in pregnant rats; assay type: in vivo; settings: oral, 100 to 1200 mg/Kg
[9] = tested on: alloxan diabetic rats; assay: Effect on alloxan diabetes in rats (glycosuria, blood-sugar, urinary volume); assay type: in vivo, male wistar rats; settings: for quantity of blood-sugar versus alloxan diabetic control group (in words): FIGS. 3 and 4, after 24 hours and 12 hours fasting; for effect for treatment of alloxan-diabetes (conclusion): alloxan diabetic rats; for blood-sugar level compared with diabetic control group (summary) / quantity of glycosuria compared with diabetic control group (summary) / urinary volume compared with diabetic control group (summary): summary of experiments; for restraining effect on quantity of glycosuria: Compound TA 80 mg/Kg, Compound NA 20 mg/Kg p.o. once a day for three weeks
Experimental: Experiments were carried out in six-week male wistar rats weighing approximately 180 g. […] After 10 days, animals displaying abnormal quantity of glycosuria were selected as "diabetic" animals. Abnormality was arbitrarily determined as quantity of glycosuria for 24 hours over 0.5 g. Total 32 alloxan diabetic rats were divided into four aliquot groups of every eight rats at random. […] These rats were placed in the metabolism cage equiped with solid foods and drinking water. The foods were removed after 9 hours, and urine was collected from said rats for 24 hours. In other experience, total 45 alloxan diabetic rats were divided into three groups of aliquot. […] These rats were placed in the metabolism cages equiped with drinking water, and urine was collected for 12 hours. Blood was also collected in each case from the carotid artery of the rats under anesthesia. for the urine and the plasma, the following biochemical tests were effected. (a) Quantity of the blood-sugar and the glycosuria: Anthrone method.

[10] = tested on: diabetics; assay: Clinical data: blood sugar and ΔIRI/ΔBS in glucose tolerance test of diabetics; assay type: in vivo, human
Experimental: There were selected 15 diabetics, whose blood-sugar values are 111-150 mg;, respectively. The diabetics are 56.8 years old in average, ranging from 49 to 65 years old. They consist of 10 males and 5 females.
It was previously confirmed that the body weights of the diabetics are almost not varied during the continuation of dietetics.
There were orally administered a daily dose of six capsules for 8 weeks, each capsule containing 100 mg of the Compound TN.
Before and after the administration of the compound of the present invention, 50 g of sugar are orally administered to carry out glucose tolerance test. Quantities of blood-sugar were measured by means of Autoanalyzer with respect to the blood which was collected from the vein of the elbow. Further, quantities of insulin were measured, in accordance with Double antibody technic, before the glucose tolerance and after 30 minutes tolerance. From the following resulting quantities, value of ΔIRI/ΔBS was calculated.

[11] = Solubility; assay type: physicochemical
[12] = tested on: human diabetics (University Group Diabetes Program); settings: oral administration, 8 years; cited from earlier work
[13] = tested on: blood-sugar amount; settings: reported in 1955; cited from earlier work
[14] = FIG. 1, urine for 24 hours, 100 mg/Kg p.o. once a day for three weeks

In the case of `Cc1c(C)c2c(c(C)c1OC(=O)c1cccnc1)CCC(C)(CCCC(C)CCCC(C)CCCC(C)C)O2` (racemic) [Compound TN, dl-α-tocopherol nicotinate], the LD50 ([1]; im) is reported as > 10000 mg/kg, the LD50 ([1]; ip) is reported as > 2000 mg/kg and the LD50 ([1]; iv) is reported as > 250 mg/kg. For the same compound, the LD50 ([1]; po) was > 15000 mg/kg, the LD50 ([1]; sc) was > 15000 mg/kg and the “deaths in acute toxicity test” value [2] was “there is no case wherein the test animals died”. For the same compound, the LD50 ([3]; im) was > 15000 mg/kg, the LD50 ([3]; ip) was > 4000 mg/kg and the LD50 ([3]; iv) was > 1000 mg/kg. The LD50 ([3]; po) was > 20000 mg/kg, the LD50 ([3]; sc) was > 20000 mg/kg and the “deaths in acute toxicity test” value [4] was “there is no case wherein the test animals died”. For the same compound, the “appearance of toxicity (hematological, blood biochemical, histological searches)” value [5] was “there could not be entirely recognized the appearance of the toxicity”, the death case [5] was “There could not be found the death case” and the restraint of weight [5] was “There could not be found the death case and the restraint of weight”. For the same compound, the “appearance of toxicity (hematological, blood biochemical, histological searches)” value [6] was “there could not be entirely recognized the appearance of the toxicity”, the death case [6] was “There could not be found the death case” and the restraint of weight [6] was “There could not be found the death case and the restraint of weight”. The “effects for mothers, foetuses and neonatal animals” value [7] was “there could not be recognized any effects for mothers, foetuses and neonatal animals”, the malformation [7] was “no malformation could be entirely found” and the “effects for mothers, foetuses and neonatal animals” value [8] was “there could not be recognized any effects for mothers, foetuses and neonatal animals”. The malformation [8] was “no malformation could be entirely found”, the “reduction of quantity of glycosuria versus diabetic control group (mean)” value [9, 14] was 1.3 g/day and the “reduction of quantity of glycosuria versus diabetic control group (percent)” value [9, 14] was 47%. The quantity of glycosuria ([9]; FIG. 2, urine for 12 hours, p.o. once a day for three weeks, TN 100 mg/Kg or TA 88 + NA 20 mg/Kg, diabetic control 1.24 g/12 hours) was 0.76 g/12 hours, the “quantity of glycosuria versus diabetic control group (in words)” value ([9]; FIG. 2, urine for 12 hours, three weeks p.o.) was “clearly reduced” and the “urinary volume (in words)” value ([9]; FIG. 5, after 12 hours, three weeks p.o.) was “reduces”. The “quantity of blood-sugar versus alloxan diabetic control group (in words)” value ([9]; three weeks p.o.) was “reduces significantly the quantity of the blood-sugar”, the “effect for treatment of alloxan-diabetes (conclusion)” value (“effect for treatment” below) ([9]; three weeks p.o.) was “unique effect for treatment of alloxan-diabetes” and the “blood-sugar level compared with diabetic control group (summary)” value ([9]; three weeks p.o.) was “small such as P = 0.05”. For the same compound, the “quantity of glycosuria compared with diabetic control group (summary)” value ([9]; three weeks p.o.) was “small such as P = 0.05”, the “urinary volume compared with diabetic control group (summary)” value ([9]; three weeks p.o.) was “small such as P = 0.05” and the degree of adiposity ([10]; 15 diabetics, 8 weeks) was “there could hardly be found a tolerance with respect to the degree of adiposity”. For the same compound, the “Blood Sugar (2) FBS (fasting blood sugar)” value ([10]; individual patient, after administration, 600 mg/day p.o. (six 100 mg capsules) for 8 weeks) was 114 mg% and 126 mg% and 111 mg% and 124 mg% and 122 mg% and 119 mg% and 123 mg% and 104 mg% and 110 mg% and 121 mg% and 118 mg%, the “ΔIRI/ΔBS (30 min.)” value ([10]; individual patient, after administration, 8 weeks, 30 min. tolerance) was 0.39 and 0.31 and 0.38 and 0.36 and 0.41 and 0.33 and 0.42 and 0.45 and 0.44 and 0.35 and 0.49 and the “Blood Sugar (2) 1 hour” value ([10]; individual patient, after administration, 8 weeks, 1 hour after 50 g glucose tolerance) was 196 mg% and 193 mg% and 178 mg% and 198 mg% and 221 mg% and 201 mg% and 205 mg% and 174 mg% and 164 mg% and 211 mg% and 214 mg% and 195 mg% and 185 mg% and 197 mg%. The “Blood Sugar (2) 2 hours” value ([10]; individual patient, after administration, 8 weeks, 2 hours after 50 g glucose tolerance) was 185 mg% and 184 mg% and 164 mg% and 195 mg% and 189 mg% and 178 mg% and 186 mg% and 154 mg% and 179 mg% and 181 mg% and 163 mg% and 172 mg% and 190 mg%, the “Blood Sugar (2) 3 hours” value ([10]; individual patient, after administration, 8 weeks, 3 hours after 50 g glucose tolerance) was 136 mg% and 114 mg% and 121 mg% and 179 mg% and 175 mg% and 154 mg% and 171 mg% and 141 mg% and 105 mg% and 172 mg% and 130 mg% and 153 mg% and the “Blood Sugar (2) 1 hour, mean” value ([10]; mean of 15, after administration, 8 weeks, 1 hour tolerance, before administration 226.5, P<0.05) was 193.1 mg%. For the same compound, the “Blood Sugar (2) 2 hours, mean” value ([10]; mean of 15, after administration, 8 weeks, 2 hours tolerance, before administration 203.7, P<0.05) was 179.3 mg%, the “Blood Sugar (2) 3 hours, mean” value ([10]; mean of 15, after administration, 8 weeks, 3 hours tolerance, before administration 166.1, P<0.05) was 145.5 mg% and the “ΔIRI/ΔBS (30 min.), mean” value ([10]; mean of 15, after administration, 8 weeks, before administration 0.319, P<0.001) was 0.394. The “Blood Sugar (2) FBS, mean” value ([10]; mean of 15 diabetics, after administration, 8 weeks, before administration 128.1, P<0.001) was 116.3 mg%, the “solubility in acetone, benzene, chloroform, ether and ethanol” value ([11]; organic solvents) was “easily soluble” and the solubility in water ([11]; water) was “hardly soluble”.
For `CC(=O)Oc1c(C)c(C)c2c(c1C)CCC(C)(CCCC(C)CCCC(C)CCCC(C)C)O2` (racemic) [Compound TA, dl-α-tocopheryl acetate], the “restraining effect on quantity of glycosuria” value ([9]; FIG. 1, urine for 24 hours) was “the restraining effect could not be found”, the “quantity of blood-sugar versus alloxan diabetic control group (in words)” value ([9]; three weeks p.o.) was “there can not be found the differences” and the “effect for treatment” value ([9]; three weeks p.o.) was “such effect can not be found”. The “blood-sugar level compared with diabetic control group (summary)” value ([9]; three weeks p.o.) was “there could not be found the difference”, the “quantity of glycosuria compared with diabetic control group (summary)” value ([9]; three weeks p.o.) was “there could not be found the difference” and the “urinary volume compared with diabetic control group (summary)” value ([9]; three weeks p.o.) was “there could not be found the difference”.
In the case of `[H]/N=C(/N)N/C(=N/[H])NCCc1ccccc1` [Phenformin], the “number of deaths due to heart-blood vessel disorder, compared with placebo group” value [12] is given as 2.5 times.
For `CCCCNC(=O)NS(=O)(=O)c1ccc(N)cc1` [Carbutamide], the “effect for depressing a blood-sugar amount” value [13] is listed as “remarkable effect for depressing a blood-sugar amount”.
For `CCCCNC(=O)NS(=O)(=O)c1ccc(C)cc1` [Tolbutamide], the “number of deaths due to heart-blood vessel disorder, compared with placebo group” value [12] is given as 2.5 times.
For `O=C(O)c1cccnc1` [Compound NA, nicotinic acid], the “restraining effect on quantity of glycosuria” value ([9]; FIG. 1, urine for 24 hours) was “the restraining effect could not be found”, the “quantity of blood-sugar versus alloxan diabetic control group (in words)” value ([9]; three weeks p.o.) was “there can not be found the differences” and the “effect for treatment” value ([9]; three weeks p.o.) was “such effect can not be found”. For the same compound, the “blood-sugar level compared with diabetic control group (summary)” value ([9]; three weeks p.o.) was “there could not be found the difference”, the “quantity of glycosuria compared with diabetic control group (summary)” value ([9]; three weeks p.o.) was “there could not be found the difference” and the “urinary volume compared with diabetic control group (summary)” value ([9]; three weeks p.o.) was “there could not be found the difference”.
